For 7 compounds, MIC results are on record in US9650395B2, “Antibacterial compounds and methods for use” (PTC Therapeutics, Inc., priority 2011, dated 2017).

In brackets after ≈: the same amount, converted by molar mass. Bounds are passed on as bounds.

Assay [1] concerns control Gram-negative E. coli 25922 strain. As to the kind of experiment: Antibacterial activity, microbroth dilution MIC, E. coli 25922. It is filed as cell-based, Escherichia coli. Particulars: Escherichia coli; E. coli 25922, microbroth dilution; read-out: MIC, 25922.
For assay [2], the system named is Moraxella catarrhalis (M. catarrhalis) 25238. As to the kind of experiment: Antibacterial activity, MIC, M. catarrhalis 25238. The class given is cell-based. Particulars: Moraxella catarrhalis, M. catarrhalis 25238; read-out: MIC 25238.
For assay [3], the system named is Pseudomonas aeruginosa (P. aeruginosa) 27853. As to the kind of experiment: Antibacterial activity, MIC, P. aeruginosa 27853. Particulars: Pseudomonas aeruginosa, P. aeruginosa 27853; read-out: MIC 27853. It is filed as cell-based. The text has this: (§1) The antibacterial activity from a microbroth dilution method may be presented as the minimum inhibitory concentration (MIC in […]). The MIC value is the lowest concentration of a drug which prevents macroscopically visible bacterial growth under test conditions.
Antibacterial activity of test compounds against the Gram-negative bacterium Pseudomonas aeruginosa (P. aeruginosa) 27853 is shown in Table 5.

Assay [4] deals with Neisseria meningitidis (N. meningitidis) 13090. The assay is described as follows: Antibacterial activity, MIC, N. meningitidis 13090. It is filed as cell-based. Particulars: Neisseria meningitidis; N. meningitidis 13090; read-out: MIC 13090.
Assay [5] concerns Gram-positive Staphylococcus aureus (S. aureus) 29213. The assay is described as follows: Antibacterial activity, microbroth dilution MIC, S. aureus 29213. It is filed as cell-based. Conditions: Staphylococcus aureus; S. aureus 29213, microbroth dilution; read-out: MIC, 29213.
The test system of assay [6] is Haemophilus influenzae (H. influenzae) 49247. The assay is described as follows: Antibacterial activity, MIC, H. influenzae 49247. It is filed as cell-based. Particulars: Haemophilus influenzae; H. influenzae 49247; read-out: MIC 49247. The procedure, abridged:
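A microbroth dilution method gave the minimum inhibitory concentration for each compound against H. influenzae 49247, a Gram-negative bacterium. MIC means the smallest concentration of drug at which no macroscopically visible bacterial growth appears under the conditions of the test.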

Assay [7] has as its system super sensitive Gram-negative Escherichia coli (E. coli) BAS849. The assay is described as follows: Antibacterial activity, microbroth dilution MIC, E. coli BAS849. It is filed as cell-based. Conditions: Escherichia coli; E. coli BAS849, microbroth dilution; read-out: MIC, BAS849. On the technique in general: In broth dilution the organism is exposed to a series of concentrations in liquid medium.

Assay [8] concerns E. coli ELZ4000 (MDR clinical isolate). As to the kind of experiment: Antibacterial activity, MIC, MDR E. coli ELZ4000. It is filed as cell-based, Escherichia coli. Conditions: Escherichia coli; E. coli ELZ4000, MDR clinical isolate; read-out: MIC ELZ4000.
Assay [9] concerns E. coli ELZ4251 (MDR clinical isolate). As to the kind of experiment: Antibacterial activity, MIC, MDR E. coli ELZ4251. Conditions: Escherichia coli, E. coli ELZ4251, MDR clinical isolate; read-out: MIC ELZ4251. The class given is cell-based, Escherichia coli.
Assay [10] has as its system quinolone resistant E. coli LZ3111. The assay is described as follows: Antibacterial activity, MIC, quinolone resistant E. coli LZ3111. The class given is cell-based, Escherichia coli. Particulars: Escherichia coli, read-out: MIC, LZ3111.
Description: as §1
Mutations in these regions are known to confer a high level resistance to the quinolone class of antibiotics.

For the compound `CN(C)c1ccc(-c2[nH]c(=O)c(C(=O)O)cc2C2CC2)cc1` [Cpd 12, 5-cyclopropyl-6-[4-(dimethylamino)phenyl]-2-oxo-1,2-dihydropyridine-3-carboxylic acid], the MIC was 3.5 to 12.5 µg/mL (≈ 11.7 to 41.9 µM) in assay [1]; less than 1 µg/mL in [2]; 12.5 to 150 µg/mL (≈ 41.9 to 503 µM) in [3]; less than 1 µg/mL in assay [4]; 12.5 to 150 µg/mL (≈ 41.9 to 503 µM) in assay [5]; less than 1 µg/mL in assay [6]. Besides, the MIC in assay [7] was less than 1 µg/mL; in assay [8], 12.5 to 150 µg/mL (≈ 41.9 to 503 µM); in assay [9] it was 12.5 to 150 µg/mL (≈ 41.9 to 503 µM); in [10] it was 12.5 to 150 µg/mL (≈ 41.9 to 503 µM).

With `CCc1c(-c2ccc(N3CCC3)cc2)[nH]c(=O)c(C(=O)O)c1O` [Cpd 83, 6-[4-(azetidin-1-yl)phenyl]-5-ethyl-4-hydroxy-2-oxo-1,2-dihydropyridine-3-carboxylic acid], the MIC in assay [1] was 3.5 to 12.5 µg/mL (≈ 11.1 to 39.8 µM); in assay [2] it was less than 1 µg/mL; in assay [3], 12.5 to 150 µg/mL (≈ 39.8 to 477 µM); in assay [4], less than 1 µg/mL; in [5] it was 3.5 to 12.5 µg/mL (≈ 11.1 to 39.8 µM); in assay [6] it was less than 1 µg/mL. In addition, the MIC is less than 1 µg/mL in assay [7], 12.5 to 150 µg/mL (≈ 39.8 to 477 µM) in assay [8], 12.5 to 150 µg/mL (≈ 39.8 to 477 µM) in assay [9] and 12.5 to 150 µg/mL (≈ 39.8 to 477 µM) in assay [10].

As to `CC(C)c1c(-c2ccc(N(C)C)cc2)[nH]c(=O)c(C(=O)O)c1O` [Cpd 96, 6-[4-(dimethylamino)phenyl]-4-hydroxy-2-oxo-5-(propan-2-yl)-1,2-dihydropyridine-3-carboxylic acid], the MIC is 3.5 to 12.5 µg/mL (≈ 11.1 to 39.5 µM) in assay [1]; less than 1 µg/mL in [2]; 12.5 to 150 µg/mL (≈ 39.5 to 474 µM) in assay [3]; less than 1 µg/mL in assay [4]; 3.5 to 12.5 µg/mL (≈ 11.1 to 39.5 µM) in assay [5]; less than 1 µg/mL in [6]. Moreover, the MIC is less than 1 µg/mL in assay [7], 12.5 to 150 µg/mL (≈ 39.5 to 474 µM) in [8], 12.5 to 150 µg/mL (≈ 39.5 to 474 µM) in assay [9] and 12.5 to 150 µg/mL (≈ 39.5 to 474 µM) in assay [10].

Regarding `CCc1c(-c2ccc(-n3ccnc3)cc2)[nH]c(=O)c(C(=O)O)c1O` [Cpd 107, 5-ethyl-4-hydroxy-6-[4-(1H-imidazol-1-yl)phenyl]-2-oxo-1,2-dihydropyridine-3-carboxylic acid], the MIC is 12.5 to 150 µg/mL (≈ 38.4 to 461 µM) in [1]; less than 1 µg/mL in assay [2]; 12.5 to 150 µg/mL (≈ 38.4 to 461 µM) in [3]; less than 1 µg/mL in [4]; 12.5 to 150 µg/mL (≈ 38.4 to 461 µM) in assay [5]; less than 1 µg/mL in [6]. The MIC is 1 to 3.5 µg/mL (≈ 3.07 to 10.8 µM) in [7], 12.5 to 150 µg/mL (≈ 38.4 to 461 µM) in assay [8], 12.5 to 150 µg/mL (≈ 38.4 to 461 µM) in assay [9] and 12.5 to 150 µg/mL (≈ 38.4 to 461 µM) in assay [10].

Regarding `CCc1cc(C(=O)O)c(=O)[nH]c1-c1ccc(N2CCCCC2)cc1` [Cpd 108, 5-ethyl-2-oxo-6-[4-(piperidin-1-yl)phenyl]-1,2-dihydropyridine-3-carboxylic acid], the MIC in assay [1] was 12.5 to 150 µg/mL (≈ 38.3 to 460 µM); in assay [2] it was less than 1 µg/mL; in assay [3], 12.5 to 150 µg/mL (≈ 38.3 to 460 µM); in assay [4] it was less than 1 µg/mL; in assay [5] it was 12.5 to 150 µg/mL (≈ 38.3 to 460 µM); in [6], less than 1 µg/mL. Also, the MIC in assay [7] is less than 1 µg/mL; in assay [8], 12.5 to 150 µg/mL (≈ 38.3 to 460 µM); in assay [9] it was 12.5 to 150 µg/mL (≈ 38.3 to 460 µM); in [10] it was 12.5 to 150 µg/mL (≈ 38.3 to 460 µM).

In the case of `CCc1cc(C(=O)O)c(=O)[nH]c1-c1ccc(N2CCOCC2)cc1` [Cpd 110, 5-ethyl-6-[4-(morpholin-4-yl)phenyl]-2-oxo-1,2-dihydropyridine-3-carboxylic acid], the MIC is 3.5 to 12.5 µg/mL (≈ 10.7 to 38.1 µM) in assay [1]; less than 1 µg/mL in assay [2]; 12.5 to 150 µg/mL (≈ 38.1 to 457 µM) in [3]; less than 1 µg/mL in assay [4]; 12.5 to 150 µg/mL (≈ 38.1 to 457 µM) in [5]; less than 1 µg/mL in assay [6]. Besides, the MIC in assay [7] is less than 1 µg/mL; in [8], 12.5 to 150 µg/mL (≈ 38.1 to 457 µM); in assay [9], 12.5 to 150 µg/mL (≈ 38.1 to 457 µM); in assay [10], 12.5 to 150 µg/mL (≈ 38.1 to 457 µM).

For `CCc1cc(C(=O)O)c(=O)[nH]c1-c1ccc(N2CCC2)cc1` [Cpd 111, 6-[4-(azetidin-1-yl)phenyl]-5-ethyl-2-oxo-1,2-dihydropyridine-3-carboxylic acid], the MIC in assay [1] is 1 to 3.5 µg/mL (≈ 3.35 to 11.7 µM); in assay [2], less than 1 µg/mL; in [3] it was 12.5 to 150 µg/mL (≈ 41.9 to 503 µM); in assay [4] it was less than 1 µg/mL; in [5], 12.5 to 150 µg/mL (≈ 41.9 to 503 µM); in assay [6], less than 1 µg/mL. The MIC was less than 1 µg/mL in assay [7], 12.5 to 150 µg/mL (≈ 41.9 to 503 µM) in assay [8], 12.5 to 150 µg/mL (≈ 41.9 to 503 µM) in [9] and 12.5 to 150 µg/mL (≈ 41.9 to 503 µM) in [10].
